In ChEMBL document CHEMBL3044779, “The action of herbicides on fatty acid biosynthesis and elongation in barley and cucumber” (Pest Manag Sci, 2010) one finds inhibition and Activity data, which are given here for 1 compound.

The structures appear in SMILES notation. The source made the active and inactive calls. The rule behind the calls is not given here.

Assay [1] deals with Hordeum vulgare. Put plainly: Inhibition of fatty acid synthesis in Hordeum vulgare (barley) using [14C]malonate assessed as inhibition of [14C]-labeled 18C fatty acid production at 30 uM after 3 hr by liquid scintillation counting. It counts as functional, organism-based.
In assay [2] the test system is Hordeum vulgare. In words: Inhibition of fatty acid synthesis in Hordeum vulgare (barley) using [14C]malonate assessed as inhibition of [14C]-labeled 24C fatty acid production at 30 uM after 3 hr by liquid scintillation counting. Format: functional, organism-based.
Assay [3] relates to Cucumis sativus. Put plainly: Inhibition of fatty acid synthesis in Cucumis sativus (cucumber) using [14C]malonate assessed as inhibition of [14C]-labeled 24C fatty acid production at 30 uM after 3 hr by liquid scintillation counting. Format: functional, organism-based.
Assay [4] deals with Cucumis sativus. Put plainly: Inhibition of fatty acid synthesis in Cucumis sativus (cucumber) using [14C]acetate assessed as [14C]-labeled 22C fatty acid level at 30 uM after 3 hr by liquid scintillation counting (reference value: 17.9 +/- 2.5%). Also on record: scale not given: the % may be the effect or the level left. Format: functional.
The test system of assay [5] is Hordeum vulgare. Put plainly: Inhibition of fatty acid synthesis in Hordeum vulgare (barley) assessed as inhibition of [14C]acetate incoporation in total fatty acids at 30 uM measured as total disintegration per g of fresh weight after 3 hr by liquid scintillation counting (reference value: 5.7 +/- 0.5 10^6 dpm x 10'6 g'1 fresh wt). It counts as functional.
In assay [6] the test system is Hordeum vulgare. In words: Inhibition of fatty acid synthesis in Hordeum vulgare (barley) using [14C]malonate assessed as inhibition of [14C]-labeled 22C fatty acid production at 30 uM after 3 hr by liquid scintillation counting. It counts as functional, organism-based.
Assay [7] relates to Hordeum vulgare. Put plainly: Inhibition of fatty acid synthesis in Hordeum vulgare (barley) using [14C]acetate assessed as [14C]-labeled 18C fatty acid level at 30 uM after 3 hr by liquid scintillation counting (reference value: 60.3 +/- 1.3%). Format: functional. Also on record: scale not given: the % may be the effect or the level left.
Assay [8] concerns Cucumis sativus. Put plainly: Inhibition of fatty acid synthesis in Cucumis sativus (cucumber) using [14C]malonate assessed as inhibition of [14C]-labeled 18C fatty acid production at 30 uM after 3 hr by liquid scintillation counting. It counts as functional, organism-based.
Assay [9] has as its system Hordeum vulgare. Put plainly: Inhibition of fatty acid synthesis in Hordeum vulgare (barley) using [14C]acetate assessed as [14C]-labeled 16C fatty acid level at 30 uM after 3 hr by liquid scintillation counting (reference value: 29.5 +/- 1.3%). The arrangement: scale not given: the % may be the effect or the level left. It counts as functional.
Assay [10] has as its system Cucumis sativus. Put plainly: Inhibition of fatty acid synthesis in Cucumis sativus (cucumber) using [14C]acetate assessed as [14C]-labeled 24C fatty acid level at 30 uM after 3 hr by liquid scintillation counting (reference value: 6.5 +/- 1%). Format: functional. Also on record: scale not given: the % may be the effect or the level left.
Assay [11] deals with Cucumis sativus. In words: Inhibition of fatty acid synthesis in Cucumis sativus (cucumber) using [14C]acetate assessed as [14C]-labeled 20C fatty acid level at 30 uM after 3 hr by liquid scintillation counting (reference value: 5.1 +/- 0.7%). It counts as functional. The arrangement: scale not given: the % may be the effect or the level left.
Assay [12] has as its system Cucumis sativus. Put plainly: Inhibition of fatty acid synthesis in Cucumis sativus (cucumber) using [14C]acetate assessed as [14C]-labeled 16C fatty acid level at 30 uM after 3 hr by liquid scintillation counting (reference value: 29.2 +/- 3.5%). Also on record: scale not given: the % may be the effect or the level left. It counts as functional.
The test system of assay [13] is Cucumis sativus. In words: Inhibition of fatty acid synthesis in Cucumis sativus (cucumber) assessed as inhibition of [14C]acetate incoporation in total fatty acids at 30 uM measured as total disintegration per g of fresh weight after 3 hr by liquid scintillation counting (reference value: 6.4 +/- 1.2 dpm x 10^6 g'1 fresh wt). Format: functional.
Assay [14] has as its system Hordeum vulgare. In words: Inhibition of fatty acid synthesis in Hordeum vulgare (barley) assessed as inhibition of [14C]malonate incoporation in total fatty acids at 30 uM measured after 3 hr by liquid scintillation counting. It counts as functional, organism-based.
Assay [15] relates to Cucumis sativus. In words: Inhibition of fatty acid synthesis in Cucumis sativus (cucumber) using [14C]malonate assessed as inhibition of [14C]-labeled 20C fatty acid production at 30 uM after 3 hr by liquid scintillation counting. It counts as functional, organism-based.
For assay [16], the system named is Cucumis sativus. Put plainly: Inhibition of fatty acid synthesis in Cucumis sativus (cucumber) using [14C]malonate assessed as inhibition of [14C]-labeled 16C fatty acid production at 30 uM after 3 hr by liquid scintillation counting. Format: functional, organism-based.
The subject of assay [17] is Cucumis sativus. Put plainly: Inhibition of fatty acid synthesis in Cucumis sativus (cucumber) assessed as inhibition of [14C]malonate incoporation in total fatty acids at 30 uM measured after 3 hr by liquid scintillation counting. It counts as functional, organism-based.
For assay [18], the system named is Cucumis sativus. In words: Inhibition of fatty acid synthesis in Cucumis sativus (cucumber) using [14C]malonate assessed as inhibition of [14C]-labeled 22C fatty acid production at 30 uM after 3 hr by liquid scintillation counting. Format: functional, organism-based.
In assay [19] the test system is Hordeum vulgare. In words: Inhibition of fatty acid synthesis in Hordeum vulgare (barley) using [14C]acetate assessed as [14C]-labeled 20C fatty acid level at 30 uM after 3 hr by liquid scintillation counting (reference value: 4.7 +/- 1.6%). Format: functional. The arrangement: scale not given: the % may be the effect or the level left.
Assay [20] deals with Hordeum vulgare. Put plainly: Inhibition of fatty acid synthesis in Hordeum vulgare (barley) using [14C]malonate assessed as inhibition of [14C]-labeled 20C fatty acid production at 30 uM after 3 hr by liquid scintillation counting. Format: functional, organism-based.
Assay [21] deals with Hordeum vulgare. Put plainly: Inhibition of fatty acid synthesis in Hordeum vulgare (barley) using [14C]malonate assessed as inhibition of [14C]-labeled 16C fatty acid production at 30 uM after 3 hr by liquid scintillation counting. Format: functional, organism-based.
For assay [22], the system named is Hordeum vulgare. In words: Inhibition of fatty acid synthesis in Hordeum vulgare (barley) using [14C]acetate assessed as [14C]-labeled 22C fatty acid level at 30 uM after 3 hr by liquid scintillation counting (reference value: 5.5 +/- 0.2%). The arrangement: scale not given: the % may be the effect or the level left. Format: functional.
The subject of assay [23] is Cucumis sativus. In words: Inhibition of fatty acid synthesis in Cucumis sativus (cucumber) using [14C]acetate assessed as [14C]-labeled 18C fatty acid level at 30 uM after 3 hr by liquid scintillation counting (reference value: 41.2 +/- 1.1%). Format: functional. Also on record: scale not given: the % may be the effect or the level left.

As to `CCN(CC)C(=O)C(C)Oc1cccc2ccccc12` (stereo not drawn) [NAPROPAMIDE], the inhibition entry in the assay with Hordeum vulgare [1], in the assay with Hordeum vulgare [2], in the assay with Cucumis sativus [3], in the assay on Hordeum vulgare [6], in the assay with Cucumis sativus [8] and in the assay with Hordeum vulgare [14] was “inactive” in each case. Moreover, the inhibition result in the assay on Cucumis sativus [15], in the assay with Cucumis sativus [16], with Cucumis sativus [17], in the assay on Cucumis sativus [18], with Hordeum vulgare [20] and with Hordeum vulgare [21] was “inactive” each time. Further, the Activity with Cucumis sativus [4] was found to be 19%; in the assay with Hordeum vulgare [5], 5.2 ×10⁶ dpm; with Hordeum vulgare [7] it was 66.9%; in the assay with Hordeum vulgare [9] it was 18.7%; in the assay with Cucumis sativus [10], 5.9%; in the assay on Cucumis sativus [11], 5.5%. Also, the Activity is on record as 26.5% in the assay with Cucumis sativus [12]; 6.2 ×10⁶ dpm in the assay with Cucumis sativus [13]; 7.6% in the assay with Hordeum vulgare [19]; 6.9% in the assay on Hordeum vulgare [22]; 43.1% in the assay with Cucumis sativus [23].
